Experimental data taken from patent US20090111894A1, “Method of Preventing Microbial Growth” (priority 2005, published 2009).

How the values were obtained:
Format in all cases: cell-based
Bacteria = assay: Reduction of organisms in corrugated board pulp; settings: pulp at 20° C.
Protocol: (§1) Contamination with moulds and bacteria is known to be serious problem for corrugated board. Hydroxyacetaldehyde was added to the corrugated board pulp during production to determine if it would be possible to produce a mould-free corrugated board.
(§2) To 40 gram of small pieces of cut corrugated board 300 ml of sterile water was added. This was mixed to form a pulp. This pulp was divided into 3 portions to which 0, 0.5 and 2% hydroxyacetaldehyde was added. The pulp was incubated at 20° C. and after 0, 2, 5 and 22 hours the number of organisms per gram pulp was measured. The reduction factor (cfu at to/cfu at tn) was as follows: […]

Moulds = assay: Reduction of organisms in corrugated board pulp; settings: pulp at 20° C.
Protocol: as §1, §2

[1] = test system: Talaromyces trachyspermus; assay: Inhibition effect in Ice Tea (MIC); settings: Lipton Ice Tea with apple juice, 25° C.
Protocol: (§3) The inhibition effect of Hydroxyacetaldehyde was tested in Ice Tea at various concentrations, at 2 different pH's and against 2 micro-organisms at 25° C. Tested were: • Zygosaccharomyces bailii • Talaromyces trachyspermus
(§4) The medium was Lipton Ice Tea with apple juice. The pH of the medium was set at 4.5 and 6.0, respectively. Hydroxyacetaldehyde concentrations were: 0, 0.0125, 0.025, 0.05, 0.1, 0.2, 0.4 and 0.8%. Growth was recorded by an automated optical density reader NEPHELOstar Galaxy of the manufacturer BMG. The MIC (Minimal Inhibition Concentration) for the different micro-organisms were: […]

Zygosaccharomyces bailii = assay: Inhibition effect in Ice Tea (MIC); settings: Lipton Ice Tea with apple juice, 25° C.
Protocol: as §3, §4

Staphylococcus aureus = assay: Inhibition effect in model media (MIC), optical density growth reading; settings: BHI, 30° C., weight/volume
Protocol: (§5) The inhibition effect of Hydroxyacetaldehyde was tested in model media at various concentration levels and at 3 different pH's and against various micro-organisms at 30° C.
(§6) The medium was Brain Heart Infusion Broth (BHI) or Malt Water. Tested were: • Bacillus subtilus in BHI • Echerichia coli in BHI • Staphylococcus aureus in BHI • Saccharomyces cerevisieae in Malt water • Penicillium crustosum in Malt water
(§7) The pH of the media was set in the medium to 4.5 5.0 and 6.0, respectively. Hydroxyacetaldehyde concentrations were: 0, 0.0125, 0.025, 0.05, 0.1, 0.2, and 0.4%. Growth was recorded by an automated Optical Density reader (NEPHELOstar Galaxy of the manufacturer BMG).

Bacillus subtilus = assay: as above; settings: BHI, 30° C., weight/volume
Protocol: as §5, §6, §7

Echerichia coli = assay: as above; settings: BHI, 30° C., weight/volume
Protocol: as §5, §6, §7

Penicillium crustosum = assay: as above; settings: Malt water, 30° C., weight/volume
Protocol: as §5, §6, §7

Candida parapsilosis = assay: as above; settings: 30° C., weight/volume
[2] = 0.5 hydroxyacetaldehyde, incubation 2 hours
[3] = 0.5 hydroxyacetaldehyde, incubation 5 hours
[4] = 0.5 hydroxyacetaldehyde, incubation 22 hours
[5] = 2% hydroxyacetaldehyde, incubation 2 hours
[6] = 2% hydroxyacetaldehyde, incubation 5 hours
[7] = 2% hydroxyacetaldehyde, incubation 22 hours

Compound: O=CCO [Hydroxyacetaldehyde]
- reduction factor (cfu at to/cfu at tn) (Bacteria; [2]): 3.8
- reduction factor (cfu at to/cfu at tn) (Bacteria; [3]): 4.1
- reduction factor (cfu at to/cfu at tn) (Bacteria; [4]): 25.5
- reduction factor (cfu at to/cfu at tn) (Bacteria; [5]): 7.4
- reduction factor (cfu at to/cfu at tn) (Bacteria; [6]): 26.4
- reduction factor (cfu at to/cfu at tn) (Bacteria; [7]): >1.4e4
- reduction factor (cfu at to/cfu at tn) (Moulds; [2]): 20
- reduction factor (cfu at to/cfu at tn) (Moulds; [3]): 40
- reduction factor (cfu at to/cfu at tn) (Moulds; [4]): >40
- reduction factor (cfu at to/cfu at tn) (Moulds; [5]): >40
- reduction factor (cfu at to/cfu at tn) (Moulds; [6]): >40
- reduction factor (cfu at to/cfu at tn) (Moulds; [7]): >40
- MIC (Minimal Inhibition Concentration) ([1]; pH 4.5): 0.1%
- MIC (Minimal Inhibition Concentration) ([1]; pH 6): 0.1%
- MIC (Minimal Inhibition Concentration) (Zygosaccharomyces bailii; pH 4.5): 0.8%
- MIC (Minimal Inhibition Concentration) (Zygosaccharomyces bailii; pH 6): 0.8%
- MIC (Minimal Inhibition Concentration) (Staphylococcus aureus; pH 4.5): 0.05%
- MIC (Minimal Inhibition Concentration) (Staphylococcus aureus; pH 5): 0.05%
- MIC (Minimal Inhibition Concentration) (Staphylococcus aureus; pH 6): 0.05%
- MIC (Minimal Inhibition Concentration) (Bacillus subtilus; pH 4.5): 0.1%
- MIC (Minimal Inhibition Concentration) (Bacillus subtilus; pH 5): 0.1%
- MIC (Minimal Inhibition Concentration) (Bacillus subtilus; pH 6): 0.1%
- MIC (Minimal Inhibition Concentration) (Echerichia coli; pH 4.5): 0.1%
- MIC (Minimal Inhibition Concentration) (Echerichia coli; pH 5): 0.1%
- MIC (Minimal Inhibition Concentration) (Echerichia coli; pH 6): 0.1%
- MIC (Minimal Inhibition Concentration) (Penicillium crustosum; pH 4.5): 0.1%
- MIC (Minimal Inhibition Concentration) (Penicillium crustosum; pH 6): 0.1%
- MIC (Minimal Inhibition Concentration) (Candida parapsilosis; pH 4.5): 0.2%
- MIC (Minimal Inhibition Concentration) (Candida parapsilosis; pH 6): 0.2%
